Results reported in patent US8476261B2, “Spirocyclic aminoquinolones as GSK-3 inhibitors” (Kyorin Pharmaceutical Co., Ltd., priority 2007, dated 2013).

Target: T1, recombinant full-length human GSK3β (Homo sapiens, UniProt P49841)
T1 construct: recombinant full-length human GSK3β (Upstate); purchased Upstate
Assay: cell-free GSK3 kinase assay (KinaseGlo luciferase)
Assay type: biochemical
Conditions: 5 μM ATP, 1 hour at 30 degrees Celsius
Description: Proceed to KinaseGlo luciferase reaction.
Following the completion of the kinase reaction an equal volume of KinaseGlo luciferase reagent (Promega) is added and the luminescence read using a luminescence plate reader within 5-10 minutes.

T1 sequence (P49841 whole entry): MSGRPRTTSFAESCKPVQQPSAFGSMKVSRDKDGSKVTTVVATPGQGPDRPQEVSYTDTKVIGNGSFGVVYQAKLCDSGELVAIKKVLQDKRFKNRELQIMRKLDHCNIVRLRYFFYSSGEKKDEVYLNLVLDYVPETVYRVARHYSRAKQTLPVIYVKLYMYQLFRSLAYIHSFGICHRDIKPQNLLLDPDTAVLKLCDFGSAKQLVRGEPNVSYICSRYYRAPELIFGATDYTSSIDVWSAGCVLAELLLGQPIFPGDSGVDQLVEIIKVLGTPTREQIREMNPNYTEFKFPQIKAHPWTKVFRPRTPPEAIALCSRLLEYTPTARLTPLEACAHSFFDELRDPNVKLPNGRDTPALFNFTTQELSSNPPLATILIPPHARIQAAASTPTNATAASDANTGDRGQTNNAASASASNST

Row | IC50 (Table 2) [nM] | IC50 (Table 1) [nM] | Compound
1 | < 15 |  | N#Cc1cn2c3c(c(NCCCc4ccccn4)c(F)c(N)c3c1=O)OCC21CC1
2 | < 15 |  | N#Cc1cn2c3c(c(NCCCc4cccnc4)c(F)c(N)c3c1=O)OCC21CC1
3 | < 15 |  | N#Cc1cn2c3c(c(NCCCn4cccn4)c(F)c(N)c3c1=O)OCC21CC1
4 | < 15 |  | N#Cc1cn2c3c(c(NCCCc4ccncc4)c(F)c(N)c3c1=O)OCC21CCCC1
5 |  | < 15 | Nc1c(F)c(NCCNc2ccccn2)c2c3c1c(=O)c(C(=O)O)cn3C1(CCCC1)CO2 [Compound 1]
6 |  | 61 to 150 | Cc1cc(NCCNc2c(F)c(N)c3c(=O)c(C(=O)O)cn4c3c2OCC42CCCC2)nc2ccccc12 [Compound 2]
7 |  | 61 to 150 | Nc1c(F)c(NCCCn2cncn2)c2c3c1c(=O)c(C(=O)O)cn3C1(CCCC1)CO2 [Compound 3]
8 |  | < 15 | Nc1c(F)c(NCCCc2ccc(F)cc2)c2c3c1c(=O)c(C(=O)O)cn3C1(CCCC1)CO2 [Compound 4]
9 |  | 16 to 60 | Nc1c(F)c(NCCCN2CCCc3ccccc32)c2c3c1c(=O)c(C(=O)O)cn3C1(CCCC1)CO2 [Compound 5]
10 |  | 16 to 60 | CC(CCc1ccc(Cl)cc1)Nc1c(F)c(N)c2c(=O)c(C(=O)O)cn3c2c1OCC31CCCC1 (centres unmarked) [Compound 6]
11 |  | 16 to 60 | Nc1c(F)c(NCCCNC(=O)c2ccco2)c2c3c1c(=O)c(C(=O)O)cn3C1(CCCC1)CO2 [Compound 7]
12 |  | 16 to 60 | Nc1c(F)c(NCCCNC(=O)C23CC4CC(CC(C4)C2)C3)c2c3c1c(=O)c(C(=O)O)cn3C1(CCCC1)CO2 [Compound 8]
13 |  | 16 to 60 | Nc1c(F)c(NCCOc2ccc(F)cc2)c2c3c1c(=O)c(C(=O)O)cn3C1(CCCC1)CO2 [Compound 9]
14 |  | 16 to 60 | Cc1cc(OCCNc2c(F)c(N)c3c(=O)c(C(=O)O)cn4c3c2OCC42CCCC2)ccc1Cl [Compound 10]
15 |  | < 15 | Nc1c(F)c(NCCSc2c[nH]c3ccccc23)c2c3c1c(=O)c(C(=O)O)cn3C1(CCCC1)CO2 [Compound 11]
16 |  | 61 to 150 | Nc1c(F)c(NCCOc2ccc(Cl)cc2)c2c3c1c(=O)c(C(=O)O)cn3C1(CCCC1)CO2 [Compound 12]
17 |  | 61 to 150 | Nc1c(F)c(NCCOc2ccc(Cl)cc2Cl)c2c3c1c(=O)c(C(=O)O)cn3C1(CCCC1)CO2 [Compound 13]
18 |  | < 15 | COc1ccc(OCCNc2c(F)c(N)c3c(=O)c(C(=O)O)cn4c3c2OCC42CCCC2)cc1OC [Compound 14]
19 |  | < 15 | Cc1ccc2nc(C)cc(NCCNc3c(F)c(N)c4c(=O)c(C(=O)O)cn5c4c3OCC53CCCC3)c2c1 [Compound 15]
20 |  | < 15 | Cc1nnc(SCCNc2c(F)c(N)c3c(=O)c(C(=O)O)cn4c3c2OCC42CCCC2)[nH]1 [Compound 16]
21 |  | > 150 | Nc1c(F)c(NCCOc2ccc(C3CCCCC3)cc2)c2c3c1c(=O)c(C(=O)O)cn3C1(CCCC1)CO2 [Compound 17]
22 |  | < 15 | Cn1ccnc1SCCNc1c(F)c(N)c2c(=O)c(C(=O)O)cn3c2c1OCC31CCCC1 [Compound 18]
23 |  | 61 to 150 | Nc1c(F)c(NCCS(=O)(=O)N2CCCCC2)c2c3c1c(=O)c(C(=O)O)cn3C1(CCCC1)CO2 [Compound 19]
24 |  | < 15 | Nc1c(F)c(NCCNC2=NS(=O)(=O)c3ccccc32)c2c3c1c(=O)c(C(=O)O)cn3C1(CCCC1)CO2 [Compound 20]
25 |  | < 15 | Nc1c(F)c(NCCSc2nnnn2-c2ccccc2)c2c3c1c(=O)c(C(=O)O)cn3C1(CCCC1)CO2 [Compound 21]

Row | IC50 (Table 2) [nM] | IC50 (Table 1) [nM] | Compound
26 |  | 61 to 150 | Nc1c(F)c(NCC(O)Cn2cnc3ccccc32)c2c3c1c(=O)c(C(=O)O)cn3C1(CCCC1)CO2 (centres unmarked) [Compound 22]
27 |  | < 15 | CCN(CCCNc1c(F)c(N)c2c(=O)c(C(=O)O)cn3c2c1OCC31CCCC1)c1ccccc1 [Compound 23]
28 |  | 61 to 150 | Nc1c(F)c(NCCN2CCc3ccccc32)c2c3c1c(=O)c(C(=O)O)cn3C1(CCCC1)CO2 [Compound 24]
29 |  | 16 to 60 | Cc1ccc(OCCNc2c(F)c(N)c3c(=O)c(C(=O)O)cn4c3c2OCC42CCCC2)cc1 [Compound 25]
30 |  | < 15 | Nc1c(F)c(NCCCc2ccccn2)c2c3c1c(=O)c(C(=O)O)cn3C1(CCCC1)CO2 [Compound 26]
31 |  | < 15 | Nc1c(F)c(NCCCc2ccccc2Cl)c2c3c1c(=O)c(C(=O)O)cn3C1(CCCC1)CO2 [Compound 27]
32 |  | < 15 | COc1ccc(CCCNc2c(F)c(N)c3c(=O)c(C(=O)O)cn4c3c2OCC42CCCC2)cc1 [Compound 28]
33 |  | 16 to 60 | CCOc1ccc(CCCNc2c(F)c(N)c3c(=O)c(C(=O)O)cn4c3c2OCC42CCCC2)cc1OCC [Compound 29]
34 |  | < 15 | Cc1cc(NCCNc2c(F)c(N)c3c(=O)c(C(=O)O)cn4c3c2OCC42CCCC2)c2ccccc2n1 [Compound 30]
35 |  | 16 to 60 | CC(CCc1ccccc1Cl)Nc1c(F)c(N)c2c(=O)c(C(=O)O)cn3c2c1OCC31CCCC1 (centres unmarked) [Compound 31]
36 |  | < 15 | Cc1nn(C)c(C)c1CCCNc1c(F)c(N)c2c(=O)c(C(=O)O)cn3c2c1OCC31CCCC1 [Compound 32]
37 |  | 61 to 150 | COc1ccc(OCCNc2c(F)c(N)c3c(=O)c(C(=O)O)cn4c3c2OCC42CCCC2)cc1 [Compound 34]
38 |  | 16 to 60 | Nc1c(F)c(NCCCc2ccccn2)c2c3c1c(=O)c(-c1nnn[nH]1)cn3C1(CCCC1)CO2 [Compound 35]
39 |  | < 15 | N#Cc1cn2c3c(c(NCCCc4ccccn4)c(F)c(N)c3c1=O)OCC21CCCC1 [Compound 36]
40 |  | < 15 | N#Cc1cn2c3c(c(NCCCn4ccnc4)c(F)c(N)c3c1=O)OCC21CCCC1 [Compound 37]
41 |  | < 15 | Cc1nn(C)c(C)c1CCCNc1c(F)c(N)c2c(=O)c(C#N)cn3c2c1OCC31CCCC1 [Compound 38]
42 |  | < 15 | COc1ccc(C(CCNc2c(F)c(N)c3c(=O)c(C(=O)O)cn4c3c2OCC42CCCC2)c2ccc(F)cc2)cc1 (centres unmarked) [Compound 39]
43 |  | > 150 | Nc1c(F)c(NCCCc2ccc(Cl)cc2)c2c3c1c(=O)c(C(=O)O)cn3C1(CCCC1)CO2 [Compound 40]
44 |  | 16 to 60 | Cc1cc(C)n(CCCNc2c(F)c(N)c3c(=O)c(C(=O)O)cn4c3c2OCC42CCCC2)n1 [Compound 41]
45 |  | < 15 | Cc1[nH]ncc1CCCNc1c(F)c(N)c2c(=O)c(C(=O)O)cn3c2c1OCC31CCCC1 [Compound 42]
46 |  | 61 to 150 | N=C(NO)c1cn2c3c(c(NCCCn4ccnc4)c(F)c(N)c3c1=O)OCC21CCCC1 [Compound 43]
47 |  | 16 to 60 | Nc1c(F)c(NCCNc2ccccn2)c2c3c1c(=O)c(C(=O)O)cn3C1(CCC1)CO2 [Compound 44]
48 |  | 61 to 150 | Nc1c(F)c(NCCNc2ccccn2)c2c3c1c(=O)c(C(=O)O)cn3CC1(CCC1)O2 [Compound 45]
49 |  | 16 to 60 | Nc1c(F)c(NCCNc2ccccn2)c2c3c1c(=O)c(C(=O)O)cn3C1(CCO2)CC1 [Compound 46]
50 |  | 16 to 60 | Nc1c(F)c(NCCNc2ccccn2)c2c3c1c(=O)c(C(=O)O)cn3C1(CCC1)CCO2 [Compound 47]

Row | IC50 (Table 2) [nM] | IC50 (Table 1) [nM] | Compound
51 |  | > 150 | Nc1c(F)c(NCCNc2ccccn2)c2c3c1c(=O)c(C(=O)O)cn3C1(CCCC1)CCO2 [Compound 48]
52 |  | < 15 | CC1COc2c(NCCNc3ccccn3)c(F)c(N)c3c(=O)c(C(=O)O)cn(c23)C12CCC2 (centres unmarked) [Compound 49]
53 |  | > 150 | CC1CC2(CCC2)n2cc(C(=O)O)c(=O)c3c(N)c(F)c(NCCNc4ccccn4)c(c32)O1 (centres unmarked) [Compound 50]
54 |  | 61 to 150 | Nc1c(F)c(NCCNc2ccccn2)c2c3c1c(=O)c(C(=O)O)cn3CC1(CCC1)CO2 [Compound 51]
55 |  | > 150 | Nc1c(F)c(NCCNc2ccccn2)c2c3c1c(=O)c(C(=O)O)cn3CC1(CC1)CO2 [Compound 52]
56 |  | 16 to 60 | Nc1c(F)c(NCCNc2ccccn2)c2c3c1c(=O)c(C(=O)O)cn3C1(CCC1)CCN2 [Compound 53]
57 |  | 61 to 150 | COc1ccc(CNc2c(F)c(N)c3c(=O)c(C(=O)O)cn4c3c2OCCC42CCC2)cc1 [Compound 55]
58 |  | < 15 | Nc1c(F)c(NCCCc2ccccn2)c2c3c1c(=O)c(C(=O)O)cn3C1(CCC1)CCO2 [Compound 56]
59 |  | 16 to 60 | CCN(CCCNc1c(F)c(N)c2c(=O)c(C(=O)O)cn3c2c1OCCC31CCC1)c1ccccc1 [Compound 57]
60 |  | 16 to 60 | Nc1c(F)c(NCCNC(=O)c2ccccn2)c2c3c1c(=O)c(C(=O)O)cn3C1(CCC1)CCO2 [Compound 58]
61 |  | < 15 | Nc1c(F)c(NCCCc2ccc(F)cc2)c2c3c1c(=O)c(C(=O)O)cn3C1(CCC1)CCO2 [Compound 59]
62 |  | < 15 | Nc1c(F)c(NCCCn2ccnc2)c2c3c1c(=O)c(C(=O)O)cn3C1(CCC1)CCO2 [Compound 60]
63 |  | 61 to 150 | Nc1nc(NCCNc2c(F)c(N)c3c(=O)c(C(=O)O)cn4c3c2OCCC42CCC2)ccc1[N+](=O)[O-] [Compound 61]
64 |  | > 150 | Nc1c(F)c(NC2CCN(c3ccccn3)C2)c2c3c1c(=O)c(C(=O)O)cn3C1(CCC1)CCO2 (centres unmarked) [Compound 62]
65 |  | > 150 | Nc1c(F)c(N[C@H]2C[C@H]2Cc2ccccn2)c2c3c1c(=O)c(C(=O)O)cn3C1(CCCC1)CO2 [Compound 63]
66 |  | 16 to 60 | Nc1c(F)c(N[C@@H]2C[C@H]2Cc2ccccn2)c2c3c1c(=O)c(C(=O)O)cn3C1(CCCC1)CO2 [Compound 64]
67 |  | < 15 | Nc1c(F)c(NCCCc2ccccc2)c2c3c1c(=O)c(C(=O)O)cn3C1(CCCC1)CO2 [Compound 65]
68 |  | > 150 | Nc1c(F)c(NCCOc2ccccc2)c2c3c1c(=O)c(C(=O)O)cn3C1(CCCC1)CO2 [Compound 66]
69 |  | > 150 | CC(C)c1ccc(OCCNc2c(F)c(N)c3c(=O)c(C(=O)O)cn4c3c2OCC42CCCC2)cc1 [Compound 67]
70 |  | 16 to 60 | Nc1c(F)c(NCCNC(=O)c2ccccn2)c2c3c1c(=O)c(C(=O)O)cn3C1(CCCC1)CO2 [Compound 68]
71 |  | < 15 | COc1cccc(CCCNc2c(F)c(N)c3c(=O)c(C(=O)O)cn4c3c2OCC42CCCC2)c1 [Compound 69]
72 |  | < 15 | Nc1c(F)c(NCCCn2cnc3ccccc32)c2c3c1c(=O)c(C(=O)O)cn3C1(CCCC1)CO2 [Compound 70]
73 |  | > 150 | Nc1c(F)c(NCCN2CCC(c3ccccc3)C2)c2c3c1c(=O)c(C(=O)O)cn3C1(CCCC1)CO2 (centres unmarked) [Compound 71]
74 |  | > 150 | Nc1c(F)c(NCCC(c2ccccc2)c2ccc3c(c2)OCO3)c2c3c1c(=O)c(C(=O)O)cn3C1(CCCC1)CO2 (centres unmarked) [Compound 72]
